# Measurements as given in the NIST ThermoML archive (doi:10.1021/je401095k).
# Numbers after ± are expanded uncertainties.
# Test: not given
# Conditions: 293.2 K; 101.33 kPa; Liquid; Vibrating tube method
row,SMILES,mass density [kg/m3]
1,CC(=O)OCCC(C)C [3-methylbutyl ethanoate],866.71 ± 0.24
2,CC(=O)CCC(C)C [5-methyl-2-hexanone],887.92 ± 0.24
3,CCCC(=O)O [butanoic acid],952.68 ± 0.23
4,O=CO [formic acid],1219.5 ± 0.42

# Test: refractive index (Na D-line) (dimensionless)
# Conditions: 293.2 K; 101.33 kPa; Liquid; Standard Abbe refractometry
row,SMILES,refractive index
1,CC(=O)OCCC(C)C [3-methylbutyl ethanoate],1.3976 ± 0.0008
2,CC(=O)CCC(C)C [5-methyl-2-hexanone],1.4051 ± 0.0008
3,CCCC(=O)O [butanoic acid],1.3977 ± 0.0008
4,O=CO [formic acid],1.371 ± 0.0008
5,O [water],1.3324 ± 0.0008
